The nature of the test: Inhibition of IL-17 in human PBMC.

The molecule `COc1cc(OC)c2c(=O)[nH]c(-c3cc(C)c(OCCN4CCCC4)c(C)c3)nc2c1` registered an IC50 of 1.3 µM.

One may read the IC50 as the midpoint of a concentration-inhibition curve. A higher IC50 goes with lower potency.

(Values after BindingDB's records for PubMed 35324195 (Sichuan University, 2022).)
